Laboratory results: PubChem BioAssay AID2060493 (Molecular Pharmacology Branch, DTP, NCI, 2025)

Test system: 616215-338-R-J1-PDC tumor spheroids, viability
Test: Anticancer human tumor 616215-338-R-J1-PDC patient-derived colon adenocarcinoma cell line growth inhibition [GQUAD]
Details: spheroids with HUVEC and MSC; for IC50: curve of first compound; for viability, T/C: stronger effect = lower value
Outline: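 Multi-cell-type spheroids of tumor cells with HUVEC and mesenchymal stem cells, treated with drug combinations. Concentrations descend in half-log steps from near clinical Cmax, or from 10 microM where Cmax is unknown; viability read-out.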

[1] = second compound 0.0316 µM, first compound 0.0316 µM
[2] = second compound 0.0316 µM, first compound 0.1 µM
[3] = second compound 0.0316 µM, first compound 0.316 µM
[4] = second compound 0.0316 µM, first compound 1 µM
[5] = second compound 0.0316 µM, first compound 3.16 µM
[6] = second compound 0.0316 µM, first compound 10 µM
[7] = second compound 0.1 µM, first compound 0.0316 µM
[8] = second compound 0.1 µM, first compound 0.1 µM
[9] = second compound 0.1 µM, first compound 0.316 µM
[10] = second compound 0.1 µM, first compound 1 µM
[11] = second compound 0.1 µM, first compound 3.16 µM
[12] = second compound 0.1 µM, first compound 10 µM
[13] = second compound 0.316 µM, first compound 0.0316 µM
[14] = second compound 0.316 µM, first compound 0.1 µM
[15] = second compound 0.316 µM, first compound 0.316 µM
[16] = second compound 0.316 µM, first compound 1 µM
[17] = second compound 0.316 µM, first compound 3.16 µM
[18] = second compound 0.316 µM, first compound 10 µM
[19] = second compound 1 µM, first compound 0.0316 µM
[20] = second compound 1 µM, first compound 0.1 µM
[21] = second compound 1 µM, first compound 0.316 µM
[22] = second compound 1 µM, first compound 1 µM
[23] = second compound 1 µM, first compound 3.16 µM
[24] = second compound 1 µM, first compound 10 µM
[25] = second compound 3.16 µM, first compound 0.0316 µM
[26] = second compound 3.16 µM, first compound 0.1 µM
[27] = second compound 3.16 µM, first compound 0.316 µM
[28] = second compound 3.16 µM, first compound 1 µM
[29] = second compound 3.16 µM, first compound 3.16 µM
[30] = second compound 3.16 µM, first compound 10 µM
[31] = second compound 10 µM, first compound 0.0316 µM
[32] = second compound 10 µM, first compound 0.1 µM
[33] = second compound 10 µM, first compound 0.316 µM
[34] = second compound 10 µM, first compound 1 µM
[35] = second compound 10 µM, first compound 3.16 µM
[36] = second compound 10 µM, first compound 10 µM
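Note: spheroids exposed to agents for 7 days before readout.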
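Throughout, for viability, T/C: percent viability relative to DMSO vehicle control wells taken as 100%.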

Compound: C=CCn1c(=O)c2cnc(Nc3ccc(N4CCN(C)CC4)cc3)nc2n1-c1cccc(C(C)(C)O)n1 + CN(C)c1ccc(Nc2c3ccc(NC(=O)CCN4CCCC4)cc3nc3cc(NC(=O)CCN4CCCC4)ccc23)cc1
- IC50 (second compound 0.0316 µM): 0.344 µM
- IC50 (second compound 0.1 µM): 0.3 µM
- IC50 (second compound 0.316 µM): 0.347 µM
- IC50 (second compound 1 µM): 0.281 µM
- IC50 (second compound 3.16 µM): 0.308 µM
- IC50 (second compound 10 µM): 0.335 µM
- viability, T/C [1]: 108%
- viability, T/C [2]: 100%
- viability, T/C [3]: 50.6%
- viability, T/C [4]: 23%
- viability, T/C [5]: 12.6%
- viability, T/C [6]: 11.5%
- viability, T/C [7]: 107%
- viability, T/C [8]: 109%
- viability, T/C [9]: 46.9%
- viability, T/C [10]: 23.5%
- viability, T/C [11]: 13.4%
- viability, T/C [12]: 12%
- viability, T/C [13]: 105%
- viability, T/C [14]: 107%
- viability, T/C [15]: 52.2%
- viability, T/C [16]: 23.3%
- viability, T/C [17]: 13.1%
- viability, T/C [18]: 14.7%
- viability, T/C [19]: 98.2%
- viability, T/C [20]: 99.5%
- viability, T/C [21]: 44.1%
- viability, T/C [22]: 24.4%
- viability, T/C [23]: 13.7%
- viability, T/C [24]: 14.3%
- viability, T/C [25]: 100%
- viability, T/C [26]: 96.9%
- viability, T/C [27]: 46.4%
- viability, T/C [28]: 26%
- viability, T/C [29]: 14.5%
- viability, T/C [30]: 10.6%
- viability, T/C [31]: 87.9%
- viability, T/C [32]: 90.3%
- viability, T/C [33]: 49%
- viability, T/C [34]: 19.9%
- viability, T/C [35]: 11.9%
- viability, T/C [36]: 3.42%

Compound: CC(C)(O)C1CCC(Nc2ccc3ncc(-c4cccc(C(F)(F)F)c4)n3n2)CC1 (centres undefined) + CN(C)c1ccc(Nc2c3ccc(NC(=O)CCN4CCCC4)cc3nc3cc(NC(=O)CCN4CCCC4)ccc23)cc1
- IC50 (second compound 0.0316 µM): 0.634 µM
- IC50 (second compound 0.1 µM): 0.726 µM
- IC50 (second compound 0.316 µM): 0.64 µM
- IC50 (second compound 1 µM): 0.711 µM
- IC50 (second compound 3.16 µM): 0.585 µM
- IC50 (second compound 10 µM): 0.447 µM
- viability, T/C [1]: 111%
- viability, T/C [2]: 106%
- viability, T/C [3]: 101%
- viability, T/C [4]: 17%
- viability, T/C [5]: 0.97%
- viability, T/C [6]: 1.74%
- viability, T/C [7]: 96.3%
- viability, T/C [8]: 104%
- viability, T/C [9]: 94.7%
- viability, T/C [10]: 32.7%
- viability, T/C [11]: 1.16%
- viability, T/C [12]: 1.76%
- viability, T/C [13]: 106%
- viability, T/C [14]: 101%
- viability, T/C [15]: 91.2%
- viability, T/C [16]: 24.1%
- viability, T/C [17]: 1.32%
- viability, T/C [18]: 2.9%
- viability, T/C [19]: 93.6%
- viability, T/C [20]: 102%
- viability, T/C [21]: 103%
- viability, T/C [22]: 29.2%
- viability, T/C [23]: 2.03%
- viability, T/C [24]: 3.51%
- viability, T/C [25]: 93.1%
- viability, T/C [26]: 92.8%
- viability, T/C [27]: 86.3%
- viability, T/C [28]: 18.4%
- viability, T/C [29]: 3.83%
- viability, T/C [30]: 1.76%
- viability, T/C [31]: 89.9%
- viability, T/C [32]: 97.8%
- viability, T/C [33]: 63.8%
- viability, T/C [34]: 15.6%
- viability, T/C [35]: 0.42%
- viability, T/C [36]: 0.5%
